Source: US5110800A, “Derivatives of erythromycylamine” (Eli Lilly and Company, priority 1989, dated 1992)
≈ marks a conversion by molar mass, not a printed value. Where two headings read alike, the source gives them in different places.

Tests used:
Test in all cases: MIC, standard agar-dilution assay
Format in all cases: cell-based
[1] = test system: Staphylococcus aureus X400; conditions: Staphylococcus aureus
Text: (§1) In addition to excellent in vitro activity against erythromycin-sensitive bacteria, several members of this new series have shown in vitro activity against erythromycin-resistant strains. These include strains which are inducibly-resistant to erythromycin (S. aureus V41 and X400 and S. epidermidis EPI1) and even strains which are constitutively-resistant (S. epidermidis 270).

[2] = test system: Staphylococcus aureus V41; conditions: Staphylococcus aureus
Text: as §1

[3] = test system: Staphylococcus epidermidis 270; conditions: Staphylococcus epidermidis, 270; Table IV; constitutively erythromycin-resistant; read-out: minimal inhibitory concentration (MIC)
Text: as §1

[4] = test system: Streptococcus sp. group D X66; conditions: Streptococcus, read-out: minimal inhibitory concentration (MIC)
[5] = test system: Streptococcus sp. group D 2041; conditions: Streptococcus, read-out: minimal inhibitory concentration (MIC)
[6] = test system: Streptococcus pyogenes C203; conditions: Streptococcus pyogenes, C203, read-out: minimal inhibitory concentration (MIC)
[7] = test system: Staphylococcus aureus X1.1; conditions: Staphylococcus aureus, X1.1, read-out: minimal inhibitory concentration (MIC)
[8] = test system: Staphylococcus epidermidis 222; conditions: Staphylococcus epidermidis, 222, read-out: minimal inhibitory concentration (MIC)
[9] = test system: Klebsiella pneumoniae X68; conditions: Klebsiella pneumoniae, X68, agar dilution, read-out: minimal inhibitory concentration (MIC)
Escherichia coli EC14 = conditions: Escherichia coli
[10] = test system: Haemophilus influenzae C.L.; conditions: Haemophilus influenzae, read-out: minimal inhibitory concentration (MIC)
[11] = X400, Table IV, methicillin-resistant strain, inducibly erythromycin-resistant, read-out: minimal inhibitory concentration (MIC)
[12] = V41, Table IV, penicillin-resistant strain, inducibly erythromycin-resistant, read-out: minimal inhibitory concentration (MIC)
[13] = EC14, Table IV, agar dilution, read-out: minimal inhibitory concentration (MIC)
[14] = EC14, read-out: minimal inhibitory concentration (MIC)

With `CC[C@H]1OC(=O)[C@H](C)[C@@H](O[C@H]2C[C@@](C)(OC)[C@@H](O)[C@H](C)O2)[C@H](C)[C@@H](O[C@@H]2O[C@H](C)C[C@H](N(C)C)[C@H]2O)[C@](C)(O)C[C@@H](C)[C@H]2[C@H](C)[C@@H](OCN2C(C)C)[C@]1(C)O` [Compound 58, 9-Deoxo-9-[isopropylamino]-9,11-(N,O)-cyclic Methylene Adduct of Erythromycin] the MIC ([1]; X400, read-out: minimal inhibitory concentration (MIC)) was > 128 µg/mL and the MIC ([2]; V41, read-out: minimal inhibitory concentration (MIC)) was > 128 µg/mL.

For `CC[C@H]1OC(=O)[C@H](C)[C@@H](O[C@H]2C[C@@](C)(OC)[C@@H](O)[C@H](C)O2)[C@H](C)[C@@H](O[C@@H]2O[C@H](C)C[C@H](N(C)C)[C@H]2O)[C@](C)(O)C[C@@H](C)[C@H](NCC2CC=CCC2)[C@H](C)[C@@H](O)[C@]1(C)O` (stereo partly shown) [Compound 15, 9-Deoxo-9-[(1-cyclohex-4-enylmethyl)amino]erythromycin], the MIC [1, 11] was > 128 µg/mL, the MIC [3] was > 128 µg/mL and the MIC [2, 12] was > 128 µg/mL.

`CC[C@H]1OC(=O)[C@H](C)[C@@H](O[C@H]2C[C@@](C)(OC)[C@@H](O)[C@H](C)O2)[C@H](C)[C@@H](O[C@@H]2O[C@H](C)C[C@H](N(C)C)[C@H]2O)[C@](C)(O)C[C@@H](C)[C@H](NCCOCCOC)[C@H](C)[C@@H](O)[C@]1(C)O` [Compound 25, 9-Deoxo-9-[[2-(2-methoxyethoxy)ethyl]amino]erythromycin] was tested, and the MIC [1, 11] was > 128 µg/mL, the MIC [3] was > 128 µg/mL and the MIC [2, 12] was > 128 µg/mL.

`CCCCCCN[C@@H]1[C@H](C)[C@@H](O)[C@](C)(O)[C@@H](CC)OC(=O)[C@H](C)[C@@H](O[C@H]2C[C@@](C)(OC)[C@@H](O)[C@H](C)O2)[C@H](C)[C@@H](O[C@@H]2O[C@H](C)C[C@H](N(C)C)[C@H]2O)[C@](C)(O)C[C@H]1C` [Compound 6, 9-Deoxo-9-(n-hexylamino)erythromycin] was tested, and the MIC [1, 11] was > 128 µg/mL, the MIC [3] was > 128 µg/mL and the MIC [2, 12] was > 128 µg/mL.

With `CC[C@H]1OC(=O)[C@H](C)[C@@H](O[C@H]2C[C@@](C)(OC)[C@@H](O)[C@H](C)O2)[C@H](C)[C@@H](O[C@@H]2O[C@H](C)C[C@H](N(C)C)[C@H]2O)[C@](C)(O)C[C@@H](C)[C@H](NCCC(C)C)[C@H](C)[C@@H](O)[C@]1(C)O` [Compound 11, 9-Deoxo-9-[(3-methylbutyl)amino]erythromycin] the MIC [1, 11] was > 128 µg/mL, the MIC [3] was > 128 µg/mL and the MIC [2, 12] was > 128 µg/mL.

In the case of `CC[C@H]1OC(=O)[C@H](C)[C@@H](O[C@H]2C[C@@](C)(OC)[C@@H](O)[C@H](C)O2)[C@H](C)[C@@H](O[C@@H]2O[C@H](C)C[C@H](N(C)C)[C@H]2O)[C@](C)(O)C[C@@H](C)[C@H](NCCCOC)[C@H](C)[C@@H](O)[C@]1(C)O` [Compound 23, (9S)-9-Deoxo-9-[(3-methoxypropyl)amino]erythromycin], the MIC [4] was 0.25 µg/mL (≈ 0.31 µM), the MIC [5] was 8 µg/mL (≈ 9.91 µM) and the MIC [1, 11] was > 128 µg/mL. The MIC [3] was > 128 µg/mL, the MIC [2, 12] was > 128 µg/mL and the MIC [6] was 0.125 µg/mL (≈ 0.155 µM). It also gave an MIC [7] of 2 µg/mL (≈ 2.48 µM) and an MIC [8] of 0.5 µg/mL (≈ 0.62 µM).

For `CCN[C@@H]1[C@H](C)[C@@H](O)[C@](C)(O)[C@@H](CC)OC(=O)[C@H](C)[C@@H](O[C@H]2C[C@@](C)(OC)[C@@H](O)[C@H](C)O2)[C@H](C)[C@@H](O[C@@H]2O[C@H](C)C[C@H](N(C)C)[C@H]2O)[C@](C)(O)C[C@H]1C` [Compound 2, (9S)-9-Deoxo-9-(ethylamino)erythromycin], the MIC [1, 11] was > 128 µg/mL, the MIC [3] was > 128 µg/mL and the MIC [2, 12] was > 128 µg/mL.

For `CCCN[C@@H]1[C@H](C)[C@@H](O)[C@](C)(O)[C@@H](CC)OC(=O)[C@H](C)[C@@H](O[C@H]2C[C@@](C)(OC)[C@@H](O)[C@H](C)O2)[C@H](C)[C@@H](O[C@@H]2O[C@H](C)C[C@H](N(C)C)[C@H]2O)[C@](C)(O)C[C@H]1C` [Compound 3, 9-Deoxo-9-(n-propylamino)erythromycin], the MIC [1, 11] was > 128 µg/mL, the MIC [3] was > 128 µg/mL and the MIC [2, 12] was > 128 µg/mL.

In the case of `CC[C@H]1OC(=O)[C@H](C)[C@@H](O[C@H]2C[C@@](C)(OC)[C@@H](O)[C@H](C)O2)[C@H](C)[C@@H](O[C@@H]2O[C@H](C)C[C@H](N(C)C)[C@H]2O)[C@](C)(O)C[C@@H](C)[C@H]2[C@H](C)[C@@H](OCN2Cc2ccccc2)[C@]1(C)O` [Compound 62, 9-Deoxo-9-[(benzyl)amino]-9,11-(N,O)-cyclic Methylene Adduct of Erythromycin], the MIC ([9]; Table V) was > 128 µg/mL and the MIC (Escherichia coli EC14; EC14, Table V, agar dilution, read-out: minimal inhibitory concentration (MIC)) was > 128 µg/mL.

For `CC[C@H]1OC(=O)[C@H](C)[C@@H](O[C@H]2C[C@@](C)(OC)[C@@H](O)[C@H](C)O2)[C@H](C)[C@@H](O[C@@H]2O[C@H](C)C[C@H](N(C)C)[C@H]2O)[C@](C)(O)C[C@@H](C)[C@H](NCCCCCO)[C@H](C)[C@@H](O)[C@]1(C)O` [Compound 21, 9-Deoxo-9-[(5-hydroxypentyl)amino]erythromycin], the MIC [1, 11] was > 128 µg/mL, the MIC [3] was > 128 µg/mL and the MIC [2, 12] was > 128 µg/mL.

For `CCCCCCCCN[C@@H]1[C@H](C)[C@@H](O)[C@](C)(O)[C@@H](CC)OC(=O)[C@H](C)[C@@H](O[C@H]2C[C@@](C)(OC)[C@@H](O)[C@H](C)O2)[C@H](C)[C@@H](O[C@@H]2O[C@H](C)C[C@H](N(C)C)[C@H]2O)[C@](C)(O)C[C@H]1C` [Compound 8, 9-Deoxo-9-(n-octylamino)erythromycin], the MIC ([9]; Table IV) was > 128 µg/mL and the MIC (Escherichia coli EC14; [13]) was > 128 µg/mL.

In the case of `CC[C@H]1OC(=O)[C@H](C)[C@@H](O[C@H]2C[C@@](C)(OC)[C@@H](O)[C@H](C)O2)[C@H](C)[C@@H](O[C@@H]2O[C@H](C)C[C@H](N(C)C)[C@H]2O)[C@](C)(O)C[C@@H](C)[C@H](NCC#Cc2ccccc2)[C@H](C)[C@@H](O)[C@]1(C)O` [Compound 18, 9-Deoxo-9-[(3-phenyl-2-propynyl)amino]erythromycin], the MIC [4] was 0.25 µg/mL (≈ 0.294 µM), the MIC ([9]; Table IV) was > 128 µg/mL and the MIC [5] was 1 µg/mL (≈ 1.18 µM). For the same molecule, the MIC (Escherichia coli EC14; [13]) was > 128 µg/mL, the MIC [7] was 1 µg/mL (≈ 1.18 µM) and the MIC [8] was 0.5 µg/mL (≈ 0.589 µM).

For `CC[C@H]1OC(=O)[C@H](C)[C@@H](O[C@H]2C[C@@](C)(OC)[C@@H](O)[C@H](C)O2)[C@H](C)[C@@H](O[C@@H]2O[C@H](C)C[C@H](N(C)C)[C@H]2O)[C@](C)(O)C[C@@H](C)[C@H](NCCC(C)CCCC(C)(C)OC)[C@H](C)[C@@H](O)[C@]1(C)O` (stereo partly shown) [Compound 24, 9-Deoxo-9-[(7-methoxy-3,7-dimethyloctyl)amino]erythromycin], the MIC ([9]; Table IV) was > 128 µg/mL, the MIC [5] was 2 µg/mL (≈ 2.21 µM) and the MIC [3] was > 128 µg/mL. It also gave an MIC (Escherichia coli EC14; [14]) of 128 µg/mL (≈ 141 µM), an MIC [6] of 0.015 µg/mL (≈ 0.0166 µM) and an MIC [7] of 0.5 µg/mL (≈ 0.552 µM). For the same molecule, the MIC [8] was 0.25 µg/mL (≈ 0.276 µM).

In the case of `CCCCC/C=C\CCCN[C@@H]1[C@H](C)[C@@H](O)[C@](C)(O)[C@@H](CC)OC(=O)[C@H](C)[C@@H](O[C@H]2C[C@@](C)(OC)[C@@H](O)[C@H](C)O2)[C@H](C)[C@@H](O[C@@H]2O[C@H](C)C[C@H](N(C)C)[C@H]2O)[C@](C)(O)C[C@H]1C` [Compound 13], the MIC [4] was 0.06 µg/mL (≈ 0.0687 µM), the MIC ([9]; Table IV) was > 128 µg/mL and the MIC [10] was 2 µg/mL (≈ 2.29 µM). It also gave an MIC (Escherichia coli EC14; [14]) of 128 µg/mL (≈ 147 µM) and an MIC [7] of 0.25 µg/mL (≈ 0.286 µM).

With `CCCCC/C=C/CCCN[C@@H]1[C@H](C)[C@@H](O)[C@](C)(O)[C@@H](CC)OC(=O)[C@H](C)[C@@H](O[C@H]2C[C@@](C)(OC)[C@@H](O)[C@H](C)O2)[C@H](C)[C@@H](O[C@@H]2O[C@H](C)C[C@H](N(C)C)[C@H]2O)[C@](C)(O)C[C@H]1C` [Compound 14, 9-Deoxo-9-[(trans-dec-4-enyl)amino]erythromycin] the MIC ([9]; Table IV) was > 128 µg/mL, the MIC [10] was 2 µg/mL (≈ 2.29 µM) and the MIC [5] was 2 µg/mL (≈ 2.29 µM). The MIC (Escherichia coli EC14; [14]) was 128 µg/mL (≈ 147 µM), the MIC [7] was 0.5 µg/mL (≈ 0.573 µM) and the MIC [8] was 0.25 µg/mL (≈ 0.286 µM).

`CC[C@H]1OC(=O)[C@H](C)[C@@H](O[C@H]2C[C@@](C)(OC)[C@@H](O)[C@H](C)O2)[C@H](C)[C@@H](O[C@@H]2O[C@H](C)C[C@H](N(C)C)[C@H]2O)[C@](C)(O)C[C@@H](C)[C@H](NCC(C)(C)CO)[C@H](C)[C@@H](O)[C@]1(C)O` [Compound 22, 9-Deoxo-9-[(3-hydroxy-2,2-dimethylpropyl)amino]erythromycin] was tested, and the MIC [1, 11] was > 128 µg/mL, the MIC [3] was > 128 µg/mL and the MIC [2, 12] was > 128 µg/mL.

With `CCC(CC)CN[C@@H]1[C@H](C)[C@@H](O)[C@](C)(O)[C@@H](CC)OC(=O)[C@H](C)[C@@H](O[C@H]2C[C@@](C)(OC)[C@@H](O)[C@H](C)O2)[C@H](C)[C@@H](O[C@@H]2O[C@H](C)C[C@H](N(C)C)[C@H]2O)[C@](C)(O)C[C@H]1C` [Compound 12, 9-Deoxo-9-[(2-ethylbutyl)amino]erythromycin] the MIC [3] was > 128 µg/mL.

With `CCCCCCCN[C@@H]1[C@H](C)[C@@H](O)[C@](C)(O)[C@@H](CC)OC(=O)[C@H](C)[C@@H](O[C@H]2C[C@@](C)(OC)[C@@H](O)[C@H](C)O2)[C@H](C)[C@@H](O[C@@H]2O[C@H](C)C[C@H](N(C)C)[C@H]2O)[C@](C)(O)C[C@H]1C` [Compound 7, 9-Deoxo-9-(n-heptylamino)erythromycin] the MIC ([9]; Table IV) was > 128 µg/mL, the MIC [1, 11] was > 128 µg/mL and the MIC [3] was > 128 µg/mL. For the same molecule, the MIC [2, 12] was > 128 µg/mL.
